Measurements as given in US20120213826A1, “Use of Pro-Inflammatory Compounds for Promoting Bone Formation” (Imperial Innovations Limited, priority 2009, published 2012).
Entries after “also recorded” stand apart in the source; their conditions may differ. Where two headings read alike, the source gives them in different places.

Assays:
[1] = cited from earlier work
[2] = tested on: muscle-derived stromal cells (MDSC); assay: MDSC proliferation (CellTiter-Glo luminescent cell viability assay); assay type: cell-based, human
Procedure: CellTiter-Glo® luminescent cell viability assay for MDSC in culture with A: TNF-α, B: IL-6 and C: IL-1β. 2.5×10^3 cells were cultured in triplicate for 1, 3 and 5 days in human serum-containing media ± recombinant human cytokine at the concentration indicated. The number of viaBIe cells in culture was determined using the assay, where luminescent signal is directly proportional to the concentration of ATP from viaBIe cells.
In order to test this hypothesis, proliferation of MDSC in human serum-containing media with rhTNF-α, rhIL-6 and rhIL-1β was tested using the CellTiter-Glo® luminescent cell viability assay was used (Promega Corp., Madison, Wis.).
This method assays the number of viaBIe cells in culture, by measuring adenosine triphosphate (ATP), where the luminescent signal is directly proportional to the number of ATP present.

[3] = tested on: muscle-derived stromal cells (MDSC); assay: Bone nodule formation by MDSC (alizarin red staining); assay type: cell-based, human
From the text: FIG. 26 TNF-α and IL-6 promote osteogenic differentiation of MDSC A-D: ALP quantification assays after culture of 1×10^4 MDSC for 7 days in a 96-well plate in triplicate with: A: fracture supernatant, ±antibody neutralization of BMPs 2/4 7 and to TGF-β. The immunoglobulin isotype controls used included IgG^1 for AbBMP-2/4 and AbTGF-β, and IgG^2B for Ab-BMP-7. B: human serum containing culture medium with the addition of recombinant human BMPs and TGF-β. C: fracture supernatant±antibody neutralization of TNF-α, IL-6 and IL-1β. The IgG^1 immunoglobulin was used as the antibody isotype control. D: human serum-containing culture medium with the addition of recombinant human TNF-α, IL-6 and IL-1β. E: Alizarin red staining for bone nodule formation after culture of 1×10^4 MDSC in human serum-containing media. Recombinant human cytokine at the optimal dose indicated by D, was added for the first 3 days ONLY, and the cells were subsequently cultured in media for 32 days. A representative image from a single well is shown. All experiments were performed 3 times, in triplicate (n=3) using MDSC from 3 donors. Values for A-D represent a mean from 3 experiments ±SEM, using supernatant from 3 donors in A and C. *: P<0.05; **: P<0.01; ***: P<0.001; 1-way ANOVA with Bonferroni's multiple comparison test in A and C and with Dunnett's multiple comparison test against the media only control in B and D.
1×10^4 MDSC were added to wells of a 24-well plate in triplicate. The cells were cultured for 35-40 days in osteogenic media (DMEM with 10% fetal calf serum and 1% penicillin/streptomycin also containing 100 nM dexamethasone (SIGMA), 1 mM β-glycerol phosphate and […] ascorbic acid), supernatant or media containing recombinant cytokines (with one media change per week) the cells were fixed with 2 ml 10% neutral buffered formalin at room temperature for 15 min. The plate was then washed twice with excess PBS. 1 ml filtered 40 mM alizarin red solution (pH 4.1) was added to each well and agitated at room temperature for 30 minutes. The excess dye was then aspirated and the plate washed four times in distilled water with gentle agitation. Finally, the plates were turned upside-down on paper to dry. Bone nodules appeared red under light microscopy. Images were taken at 20 times magnification and performed as above.

[4] = tested on: murine open tibial fracture; assay: Murine open tibial fracture model, periosteally stripped (histology, CT scans); assay type: in vivo, C57BI/6 mice
fractured ribs = settings: daily intraperitoneal 400 μg/kg body weight per day after fracture, rats; cited from earlier work
[5] = tested on: muscle-derived stromal cells (MDSC); assay: MDSC migration through a transwell membrane; assay type: cell-based, human
Procedure: Migration of 1×10^4 MDSC through an 8 μm pore transwell membrane over 36 hours, in response to fracture supernatant with the addition of AbTNF-α, AbIL-6 and AbIL-1β. The IgG^1 immunoglobulin was used as the antibody control. B: Migration in response to rhTNF-α, rhIL-6 and rhIL-1β in human serum-containing media. Results represent change in cell number, expressed as a percentage of the supernatant, or media only control. Each experiment was performed 3 times (n=3) using 3 fracture supernatants (in A). Results represent mean of 3 experiments ±SEM. *: P<0.05; **: P<0.01; ***: P<0.001; 1-way ANOVA with Bonferroni's multiple comparison test.
MDSC must be recruited to the fracture site from adjacent muscle. Next we assessed the efficacy of the pro-inflammatory cytokines in attracting MDSC in vitro using a transwell assay. 1×10^4 MDSC were seeded onto a 8 μm transwell membrane in serum free media. Next day, the transwell membrane was added to a well containing 10% human serum-containing media +IL-1β, IL6 and TNFα at the end concentrations shown. At 24 hrs the membrane was cleared of any cells on the seeded side, fixed and stained. IL-1β appeared not promote MDSC chemotaxis.
500 μl serum free media was added to each well of a 24 well plate. 8 μm pore transwell membranes (VWR International Ltd) were then added to the wells. 1×10^4 MDSC in serum free media were added to the upper chamber of each transwell membrane. At 12 hours the serum-free media was replaced with test or control media or supernatant and incubated at 37° C. for 36 hours. The upper chambers were then cleared of cells and cell debris using a cotton bud, in sweeping motions. The membrane was then washed and fixed using 10% neutral buffered formalin for 1 hour. After washing, the membrane was then added to a 1% crystal violet solution for 1 hour. After further washing, the membranes were viewed under light microscopy at 20 times magnification, using an Olympus CKX41 microscope with a QICAM camera, (QIMAGING, GT vision LLC). The number of cells present on the underside of the transwell membrane in any random field was counted 3 times and the mean calculated. Cell migration was calculated against the supernatant or human serum-containing (control) media and the number expressed as a percentage relative to the control media.

osteoclast = settings: TNF-α at 1 ng/ml; cited from earlier work

## TNFα
[1]; in the presence of soluble TNFα receptors
  plasma half life: up to 6 hours
[1]; in vivo
  plasma half life: less than 1 hour
[2]; Example 1 discussion, TNFα 1 ng/ml
  proliferation of MDSC: led to proliferation of MDSC
[2]; Example 3, 1, 3 and 5 days in human serum-containing media ± recombinant human cytokine (FIG. 28)
  MDSC proliferation: do not promote MDSC proliferation
[3]; Example 1, cytokine at 1 ng/ml, 5 weeks (FIG. 13)
  bone nodule formation by MDSC: promoted; also recorded: pronounced bone nodule formation
[3]; Example 3, recombinant cytokine at optimal dose for first 3 days, human serum-containing media (FIG. 26E)
  bone nodule formation by MDSC: stimulated vigorous nodule formation
[4]; 20 μl in PBS at fracture site, histology day 14 (FIG. 18)
  optimal dose for fracture healing: 50 ng/mL
[4]; 20 μl in PBS, 1 ng/ml equivalent to 1 ng/kg, histology day 14 (FIG. 18)
  optimal dose range for fracture healing: around 50 ng/kg
[4]; 28 days post injury, local administration at fracture site (TNFα 50 ng/kg and HMGB1 at time of fracture and 24 hr later) (FIG. 19, 30)
  healing of tibial fractures by CT scans: improved healing
[4]; TNFα 5 ng/ml at fracture site (FIG. 18)
  fracture healing: less pronounced effect
[4]; TNFα 500 ng/ml (500 ng/kg) at fracture site, versus PBS vehicle (FIG. 18)
  fracture healing: inhibitory
[4]; TNFα 500 ng/ml (500 ng/kg) at fracture site, versus PBS vehicle (FIG. 18), listed as rhTNFα
  fracture healing: inhibits fracture healing
[4]; exogenous addition at fracture site, histology day 14, log dose range 5-500 ng/ml (FIG. 18)
  fracture healing compared to control C57BI/6 mice: accelerated fracture healing
Fractured ribs
  fracture healing: significantly inhibited
[5]; Example 1, transwell, 10% human serum-containing media, 24 hrs (FIG. 14)
  chemotaxis / migration of MDSC: promote chemotaxis of MDSC; also recorded: promoted migration of MDSC
[5]; Example 3, 8 μm transwell, 36 hours, recombinant cytokine in human serum-containing media (FIG. 27B)
  migration of MDSC: chemo attractant for MDSC
[5]; Example 3, transwell, 36 hours (FIG. 27B)
  optimal concentration for MDSC migration: 1 pg/mL
osteoclast
  decrease of osteoclast number: > 90%
